Where two headings read alike, the source gives them in different places.

This is an account of results in US9493446B2, “Orexin receptor antagonists which are [ortho bi-(hetero-)aryl]-[2-(meta bi-(hetero-)aryl)-pyrrolidin-1-yl]-methanone derivatives” (Actelion Pharmaceuticals Ltd, priority 2012, dated 2016).

One data set deals with Wistar rats. Put plainly: Sleep effects: EEG, EMG and behavioural indices of alertness by radiotelemetry. The format is in vivo. The conditions noted are these: 100 mg/kg po; effects analyzed over 12 hours; compared to vehicle controls. The method, then: Sleep Effects: EEG, EMG and Behavioural Indices of Alertness Recorded by Radiotelemetry In Vivo in Wistar Rats.
Electroencephalography (EEG) and Electromyography (EMG) signals were measured by telemetry using TL11M2-F20-EET miniature radiotelemetric implants (Data Science Int.) with two pairs of differential leads.
Surgical implantation was performed under general anesthesia with Ketamin/Xylazin, for cranial placement of one differential pair of EEG electrodes and one pair of EMG leads inserted in either side of the muscles of the neck. After surgery, rats recovered in a thermoregulated chamber and received analgesic treatment with subcutaneous buprenorphine twice a day for 2 d. They were then housed individually and allowed to recover for a minimum of 2 weeks. Thereafter, rats—in their home cage—were placed in a ventilated sound-attenuating box, on a 12-h light/12-h dark cycle, for acclimatization before continuous EEG/EMG recordings started. The telemetric technology that we used in this study allows accurate and stress-free acquisition of biosignals in rats placed in their familiar home cage environment, with no recording leads restricting their movements. Variables analyzed included four different stages of vigilance and sleep, spontaneous activity in the home cage and body temperature. Sleep and wake stages were evaluated using a rodent scoring software (Somnologica Science) directly processing electrical biosignals on 10 s contiguous epochs. The scoring is based on frequency estimation for EEG and amplitude discrimination for EMG and locomotor activity. Using these measurements, the software determines the probability that all components within each epoch best represent active waking (AW), quiet waking (QW), non-REM-sleep (NREM) or REM-sleep (REM). The percentage of total time spent in AW, QW, NREM- and REM-sleep was calculated per 12 h light or dark period. The latency to the onset of the first significant NREM- and REM-sleep episodes and the number and duration of those episodes were also calculated. AW, QW, NREM- and REM-sleep, home cage activity and body temperature were measured at baseline for at least one total circadian cycle (12 h-night, 12 h-day) before a test compound was administered. […] All variables were subsequently recorded for 12 h following administration of the orexin receptor antagonist.

The next data set concerns the target orexin-1 (Homo sapiens (Human), UniProt O43613). The data set is described as follows: Intracellular calcium measurement (FLIPR), CHO cells expressing human orexin-1 receptor, 3 nM orexin-A. The format is cell-based. Conditions: read-out: IC50 OX1. The essentials:
(§1)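 Fluo-4 AM-loaded CHO cells; antagonist preincubation 120 min, then 3 nM orexin-A (final) in HBSS/0.1% BSA/20 mM HEPES. FLIPR read at 1 s intervals; peak height vs. agonist-plus-vehicle control → IC50.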

The next data set deals with human orexin-2 receptor (Homo sapiens (Human), UniProt O43614). Put plainly: Intracellular calcium measurement (FLIPR), CHO cells expressing human orexin-2 receptor, 3 nM orexin-A. Conditions: read-out: IC50 OX2. It counts as cell-based. The essentials: as §1
Data set [1] is described as follows: Measurement of brain and systemic concentration after oral administration.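 On concentration in plasma [P]: unit ng/mL.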 It counts as in vivo. Conditions: rat, 3 h after oral administration (100 mg/kg), n=3, male wistar rats. As to the method:
Measurement of Brain and Systemic Concentration after Oral Administration:
In order to assess brain penetration, the concentration of the compound is measured in plasma ([P]), and brain ([B]), sampled 3 h (or at different time points) following oral administration (e.g. 100 mg/kg) to male wistar rats. The compounds are formulated e.g. in 100% PEG 400. Samples are collected in the same animal at the same time point (+/−5 min). Blood is sampled from the vena cava caudalis into containers with EDTA as anticoagulant and centrifuged to yield plasma. Brain is sampled after cardiac perfusion of 10 mL NaCl 0.9% and homogenized into one volume of cold phosphate buffer (pH 7.4). All samples are extracted with MeOH and analyzed by LC-MS/MS. Concentrations are determined with the help of calibration curves.

Where [2] appears, read: CHO cells expressing human orexin-1 receptor, FLIPR, 3 nM orexin-A, geometric mean if determined several times.
[3] abbreviates: CHO cells expressing human orexin-2 receptor, FLIPR, 3 nM orexin-A, geometric mean if determined several times.
Setting [4] is: brain, read-out: concentration in brain [B].
Where [5] appears, read: plasma, read-out: concentration in plasma [P].

Chain of human orexin-2 receptor (O43614 whole entry): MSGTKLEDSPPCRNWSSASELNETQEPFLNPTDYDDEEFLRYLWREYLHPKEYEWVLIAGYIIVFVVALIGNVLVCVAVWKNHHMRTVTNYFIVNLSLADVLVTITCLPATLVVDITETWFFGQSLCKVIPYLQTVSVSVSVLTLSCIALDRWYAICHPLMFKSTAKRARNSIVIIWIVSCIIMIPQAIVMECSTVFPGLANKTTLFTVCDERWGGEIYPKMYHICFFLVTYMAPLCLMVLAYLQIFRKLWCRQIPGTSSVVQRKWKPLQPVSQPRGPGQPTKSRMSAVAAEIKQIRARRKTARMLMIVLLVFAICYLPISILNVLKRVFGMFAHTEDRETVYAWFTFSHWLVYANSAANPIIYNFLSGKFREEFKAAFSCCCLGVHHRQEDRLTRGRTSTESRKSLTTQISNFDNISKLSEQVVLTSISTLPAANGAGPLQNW
Chain of orexin-1 (O43613 whole entry): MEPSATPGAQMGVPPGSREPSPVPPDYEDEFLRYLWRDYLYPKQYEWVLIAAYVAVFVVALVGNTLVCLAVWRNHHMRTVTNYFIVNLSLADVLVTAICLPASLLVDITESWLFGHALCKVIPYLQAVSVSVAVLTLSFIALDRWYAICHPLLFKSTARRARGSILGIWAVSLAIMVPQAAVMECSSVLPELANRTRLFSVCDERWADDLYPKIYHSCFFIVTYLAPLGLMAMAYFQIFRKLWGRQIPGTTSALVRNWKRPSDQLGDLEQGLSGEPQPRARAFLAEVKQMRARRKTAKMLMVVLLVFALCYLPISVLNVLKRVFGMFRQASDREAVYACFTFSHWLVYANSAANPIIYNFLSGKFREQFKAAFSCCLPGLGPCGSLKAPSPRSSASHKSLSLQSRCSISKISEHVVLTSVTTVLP

Take `COc1cc(C(=O)N2CCC[C@H]2c2noc(-c3ccccc3OC(F)(F)F)n2)c(-n2nccn2)cc1C` [Example 308, (5-Methoxy-4-methyl-2-[1,2,3]triazol-2-yl-phenyl)-{(S)-2-[5-(2-trifluoromethoxy-phenyl)-[1,2,4]oxadiazol-3-yl]-pyrrolidin-1-yl}-methanone]: in the data set with Wistar rats, the “effect on NREM sleep” value was “+14.3%”, the “effect on REM sleep” value is given as “+35.2%”, the “effect on active wake” value was −24.0% and the “effect on home cage activity” value is recorded as −41.4%. At orexin-1 (setting [2]), the IC50 came out at 22 nM. In addition, the IC50 at human orexin-2 receptor (setting [3]) stood at 4 nM. In data set [1] (setting [4]), the concentration at 3 h was 1580 ng/g. Also, the concentration at 3 h in data set [1] (setting [5]) amounted to 1760 ng/mL.
Consider `Cc1cc(C(=O)N2CCC[C@H]2c2nc(-c3cccc(Cl)c3C)no2)c(-n2nccn2)cc1C` [Example 95, {(S)-2-[3-(3-Chloro-2-methyl-phenyl)-[1,2,4]oxadiazol-5-yl]-pyrrolidin-1-yl}-(4,5-dimethyl-2-[1,2,3]triazol-2-yl-phenyl)-methanone], for which, in the data set with Wistar rats, the “effect on NREM sleep” value was “+11.2%”, the “effect on REM sleep” value is “+7.8%”, the “effect on active wake” value is listed as −7.3% and the “effect on home cage activity” value is listed as −20.3%. The IC50 on orexin-1 (setting [2]) came out at 13 nM. In addition, the IC50 on human orexin-2 receptor (setting [3]) amounted to 3 nM. In addition, the concentration at 3 h in data set [1] (setting [4]) amounted to 483 ng/g. The concentration at 3 h in data set [1] (setting [5]) worked out at 309 ng/mL.
Take `COc1cc(C(=O)N2CCC[C@H]2c2nc(-c3ccccc3OC(F)(F)F)no2)c(-n2nccn2)cc1C` [Example 154, (5-Methoxy-4-methyl-2-[1,2,3]triazol-2-yl-phenyl)-{(S)-2-[3-(2-trifluoromethoxy-phenyl)-[1,2,4]oxadiazol-5-yl]-pyrrolidin-1-yl}-methanone]: in the data set with Wistar rats, the “effect on NREM sleep” value is “+7.3%”, the “effect on REM sleep” value was “+0.9%”, the “effect on active wake” value is on record as −13.9% and the “effect on home cage activity” value is −26.8%. In addition, the IC50 on orexin-1 (setting [2]) was 30 nM. Further, the IC50 at human orexin-2 receptor (setting [3]) was found to be 2 nM. Moreover, the concentration at 3 h in data set [1] (setting [4]) was 3250 ng/g. For the same compound, in data set [1] (setting [5]), the concentration at 3 h worked out at 2240 ng/mL.
In the case of `Cc1ccc(C(=O)N2CCC[C@H]2c2nnc(-c3ccccc3OC(F)(F)F)[nH]2)c(-n2nccn2)c1` [Example 502, (4-Methyl-2-[1,2,3]triazol-2-yl-phenyl)-{(S)-2-[5-(2-trifluoromethoxy-phenyl)-4H-[1,2,4]triazol-3-yl]-pyrrolidin-1-yl}-methanone], in the data set on Wistar rats, the “effect on NREM sleep” value is listed as “+24.2%”, the “effect on REM sleep” value is listed as “+47.0%”, the “effect on active wake” value is −19.4% and the “effect on home cage activity” value is −47.1%. Also, the concentration at 3 h in data set [1] (setting [4]) was found to be 1640 ng/g. Further, the concentration at 3 h in data set [1] (setting [5]) was 2770 ng/mL.
Take `Cc1ccc(-n2nccn2)c(C(=O)N2CCC[C@H]2c2nc(-c3ccccc3OC(F)(F)F)no2)n1` [compound 159, (6-Methyl-3-[1,2,3]triazol-2-yl-pyridin-2-yl)-{(S)-2-[3-(2-trifluoromethoxy-phenyl)-[1,2,4]oxadiazol-5-yl]-pyrrolidin-1-yl}-methanone]: the IC50 was found to be 88 nM at orexin-1 (setting [2]) and 71 nM at human orexin-2 receptor (setting [3]).
The matching figures for `COc1cc(C(=O)N2CCC[C@H]2c2noc(-c3cccc(OC)c3C)n2)c(-n2nccn2)cc1Cl` [compound 355]: 188 nM and 8 nM.
As to `Cc1ccc(-n2cccn2)c(C(=O)N2CCC[C@H]2c2nc(-c3cccc(Cl)c3C)no2)n1` [compound 109], the IC50 on orexin-1 stood at 976 nM; on human orexin-2 receptor it was 199 nM.
Take `COc1cc(C(=O)N2CCC[C@H]2c2noc(-c3cc(C)ccc3C)n2)c(-n2nccn2)cc1Cl` [compound 408]: the values for the IC50 at orexin-1 (setting [2]) and at human orexin-2 receptor (setting [3]) were 31 nM and 2 nM, respectively.
As for `COc1c(F)cccc1-c1nc([C@@H]2CCCN2C(=O)c2ccc(C)cc2-n2nccn2)no1` [compound 338, {(S)-2-[5-(3-Fluoro-2-methoxy-phenyl)-[1,2,4]oxadiazol-3-yl]-pyrrolidin-1-yl}-(4-methyl-2-[1,2,3]triazol-2-yl-phenyl)-methanone], the IC50 came out at 27 nM at orexin-1 (setting [2]) and 4 nM on human orexin-2 receptor (setting [3]).
As for `CCOc1ccccc1-c1nnc([C@@H]2CCCN2C(=O)c2cc(C)ccc2-n2nccn2)[nH]1` [compound 495, {(S)-2-[5-(2-Ethoxy-phenyl)-4H-[1,2,4]triazol-3-yl]-pyrrolidin-1-yl}-(5-methyl-2-[1,2,3]triazol-2-yl-phenyl)-methanone], the values for the IC50 on orexin-1 (setting [2]) and at human orexin-2 receptor (setting [3]) were 39 nM and 38 nM, respectively.
As to `CCOc1ccccc1-c1noc([C@@H]2CCCN2C(=O)c2cccc(C)c2-n2nccn2)n1` [compound 262, {(S)-2-[3-(2-Ethoxy-phenyl)-[1,2,4]oxadiazol-5-yl]-pyrrolidin-1-yl}-(3-methyl-2-[1,2,3]triazol-2-yl-phenyl)-methanone], the IC50 was 1110 nM at orexin-1 (setting [2]) and 145 nM at human orexin-2 receptor (setting [3]).
With `COc1ccc(C)cc1-c1nc([C@@H]2CCCN2C(=O)c2ccc(C)cc2-n2nccn2)no1` [compound 414, {(S)-2-[5-(2-Methoxy-5-methyl-phenyl)-[1,2,4]oxadiazol-3-yl]-pyrrolidin-1-yl}-(4-methyl-2-[1,2,3]triazol-2-yl-phenyl)-methanone], the IC50 at orexin-1 (setting [2]) came to 331 nM; at human orexin-2 receptor (setting [3]), 35 nM.
Regarding `CCOc1ccccc1-c1noc([C@@H]2CCCN2C(=O)c2cc(C)ccc2-n2nccn2)n1` [compound 40, {(S)-2-[3-(2-Ethoxy-phenyl)-[1,2,4]oxadiazol-5-yl]-pyrrolidin-1-yl}-(5-methyl-2-[1,2,3]triazol-2-yl-phenyl)-methanone], the IC50 on orexin-1 (setting [2]) is 22 nM; at human orexin-2 receptor (setting [3]), 4 nM.
Taken in the same sequence, the figures for `Cc1onc(-c2ccccc2Cl)c1C(=O)N1CCC[C@H]1c1nc(-c2cccc(Cl)c2C)no1` [Ref 7] were 529 nM and 593 nM.
Regarding `CCOc1ncccc1-c1nc([C@@H]2CCCN2C(=O)c2cc(OC)c(Cl)cc2-n2nccn2)no1` [compound 370], the IC50 on orexin-1 (setting [2]) turned out to be 9 nM; on human orexin-2 receptor (setting [3]), 1 nM.
For the compound `COc1ccccc1-c1nnc([C@@H]2CCCN2C(=O)c2cc(Cl)c(C)cc2-n2nccn2)[nH]1` [compound 469], the IC50 on orexin-1 (setting [2]) was found to be 25 nM; on human orexin-2 receptor, 45 nM.
For the compound `COc1cc(C(=O)N2CCC[C@H]2c2nnc(-c3cccc(Cl)c3OC)[nH]2)c(-n2nccn2)cc1C` [compound 490, {(S)-2-[5-(3-Chloro-2-methoxy-phenyl)-4H-[1,2,4]triazol-3-yl]-pyrrolidin-1-yl}-(5-methoxy-4-methyl-2-[1,2,3]triazol-2-yl-phenyl)-methanone], the results for the IC50 at orexin-1 (setting [2]) and at human orexin-2 receptor (setting [3]) were 120 nM and 2 nM, respectively.
Consider `Cc1ccc(-n2nccn2)c(C(=O)N2CCC[C@H]2c2nc(-c3cc(C)nc(C)c3)no2)c1` [compound 65, {(S)-2-[3-(2,6-Dimethyl-pyridin-4-yl)-[1,2,4]oxadiazol-5-yl]-pyrrolidin-1-yl}-(5-methyl-2-[1,2,3]triazol-2-yl-phenyl)-methanone], for which the results for the IC50 on orexin-1 (setting [2]) and on human orexin-2 receptor (setting [3]) were 758 nM and 375 nM, respectively.
For `Cc1c(F)cccc1-c1noc([C@@H]2CCCN2C(=O)c2cc(F)ccc2-n2nccn2)n1` [compound 250, {(S)-2-[3-(3-Fluoro-2-methyl-phenyl)-[1,2,4]oxadiazol-5-yl]-pyrrolidin-1-yl}-(5-fluoro-2-[1,2,3]triazol-2-yl-phenyl)-methanone], the IC50 on orexin-1 (setting [2]) came to 489 nM; on human orexin-2 receptor (setting [3]), 38 nM.
